IC50 data for 15 molecules are collected here from patent publication US12606572B2, “Substituted heterocycles and uses thereof” (Kumquat Biosciences Inc., priority 2023, dated 2026).

One test deals with T1, KRAS WT (Homo sapiens, UniProt P01116).
T1 construct: made in house; host or cells: E. coli BL21 (DE3)
The test can be described thus: HTRF assay, interaction of GST-tagged K-Ras with His-tagged hSOS1 (KRAS wildtype). The class given is biochemical. The settings on record: <500 nM, read-out: Inhibition of KRAS WT (IC50). In short, it runs like this: (§1)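 GST-K-Ras (G12S or WT) with anti-GST-Eu donor mixed with His-hSOS1 and anti-6His-XL665 acceptor in ~5 mM HEPES pH 7.4, 150 mM NaCl, 1 mM DTT, 0.05% BSA, 0.0025% Igepal. After ~10 min or longer, HTRF 665/620 nm ratio read.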

In another test the target is T2, KRAS G12S (Homo sapiens, UniProt P01116, G12S).
T2 construct: made in house; host or cells: E. coli BL21 (DE3)
T2 sequence (P01116 1-188 isoform P01116-2 G12S): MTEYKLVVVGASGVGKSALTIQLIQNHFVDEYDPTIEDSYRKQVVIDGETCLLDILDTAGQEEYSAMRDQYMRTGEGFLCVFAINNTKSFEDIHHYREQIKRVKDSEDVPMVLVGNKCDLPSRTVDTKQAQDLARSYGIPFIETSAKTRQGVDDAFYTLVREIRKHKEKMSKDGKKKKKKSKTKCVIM
The test can be described thus: HTRF assay, interaction of GST-tagged K-Ras with His-tagged hSOS1 (KRAS G12S). Format: biochemical. The settings on record: <500 nM, read-out: Inhibition of KRAS G12S (IC50). In short, it runs like this:
as §1

T1 sequence (P01116 1-188 isoform P01116-2): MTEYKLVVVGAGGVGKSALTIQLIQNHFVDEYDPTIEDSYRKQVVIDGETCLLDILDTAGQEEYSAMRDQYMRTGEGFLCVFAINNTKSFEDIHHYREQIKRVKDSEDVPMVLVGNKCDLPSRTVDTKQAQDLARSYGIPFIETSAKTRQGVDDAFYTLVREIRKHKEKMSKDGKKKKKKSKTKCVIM

Take `C/C(C#N)=C\C(=O)N1CC(CN2CCOc3c(Cl)c(-c4ccc(F)c5sc(N)c(C#N)c45)c(F)c4nc(OC[C@@]56CCCN5C[C@H](F)C6)nc2c34)C1` [Compound 439, 2-amino-4-(8-chloro-4-((1-((E)-3-cyanobut-2-enoyl)azetidin-3-yl)methyl)-10-fluoro-2-(((2R,7aS)-2-fluorotetrahydro-1H-pyrrolizin-7a(5H)-yl)methoxy)-5,6-dihydro-4H-[1,4]oxazepino[5,6,7-de]quinazolin-9-yl)-7-fluorobenzo [b]thiophene-3-carbonitrile]: the IC50 at KRAS WT and on KRAS G12S was under 500 nM throughout.

Consider `CC#CC(=O)N1C[C@@H](CN2CCOc3c(Cl)c(-c4ccc(F)c5sc(N)c(C#N)c45)c(F)c4nc(OC[C@@]56CCCN5C[C@H](F)C6)nc2c34)[C@H]1C1(C)CC1` [Compound 484, 2-amino-4-(4-(((2S,3R)-1-(but-2-ynoyl)-2-(1-methylcyclopropyl)azetidin-3-yl)methyl)-8-chloro-10-fluoro-2-(((2R,7aS)-2-fluorotetrahydro-1H-pyrrolizin-7a(5H)-yl)methoxy)-5,6-dihydro-4H-[1,4]oxazepino [5,6,7-de]quinazolin-9-yl)-7-fluorobenzo[b]thiophene-3-carbonitrile], for which the 50% inhibitory concentration (IC50) on KRAS WT and on KRAS G12S was under 500 nM in each case.

In the case of `Cc1cn(C(=O)N2CC[C@@H](N3CCCCc4nc(-c5ccc(F)c6sc(N)c(C#N)c56)c(F)c5nc(OC[C@@]67CCCN6C[C@H](F)C7)nc3c45)[C@H]2C)c(C)n1` [Compound 454, 2-amino-4-(11-((2R,3R)-1-(2,4-dimethyl-1H-imidazole-1-carbonyl)-2-methylpyrrolidin-3-yl)-4-fluoro-2-(((2R,7aS)-2-fluorotetrahydro-1H-pyrrolizin-7a (5H)-yl)methoxy)-8,9,10,11-tetrahydro-7H-1,3,6,11-tetraazacycloocta[de]naphthalen-5-yl)-7-fluorobenzo[b]thiophene-3-carbonitrile], the IC50 at KRAS WT and on KRAS G12S was under 500 nM throughout.

Take `C[C@@H]1[C@H](N2CCCOc3c(Cl)c(-c4ccc(F)c5sc(N)c(C#N)c45)c(F)c4nc(OC[C@@]56CCCN5C[C@H](F)C6)nc2c34)CCN1C(=O)n1cnc(F)n1` [Compound 448, 2-amino-4-(9-chloro-11-fluoro-4-((2R,3R)-1-(3-fluoro-1H-1,2,4-triazole-1-carbonyl)-2-methylpyrrolidin-3-yl)-2-(((2R,7aS)-2-fluorotetrahydro-1H-pyrrolizin-7a(5H)-yl)methoxy)-4,5,6,7-tetrahydro-[1,5]oxazocino [4,3,2-de]quinazolin-10-yl)-7-fluorobenzo[b]thiophene-3-carbonitrile]: the concentration for half-maximal inhibition (IC50) at KRAS WT and on KRAS G12S was under 500 nM in each case.

Turning to `C[C@@H]1[C@H](N2c3nc(OC[C@@]45CCCN4C[C@H](F)C5)nc4c(F)c(-c5ccc(F)c6sc(N)c(C#N)c56)c(Cl)c(c34)OC[C@@H]2C)CCN1C(=O)n1cnc(C#N)c1` [Compound 406, 1-((2R,3R)-3-((5S)-9-(2-amino-3-cyano-7-fluorobenzo[b]thiophen-4-yl)-8-chloro-10-fluoro-2-(((2R,7aS)-2-fluorotetrahydro-1H-pyrrolizin-7a(5H)-yl)methoxy)-5-methyl-5,6-dihydro-4H-[1,4]oxazepino [5,6,7-de]quinazolin-4-yl)-2-methylpyrrolidine-1-carbonyl)-1H-imidazole-4-carbonitrile], the 50% inhibitory concentration (IC50) on KRAS WT and at KRAS G12S was under 500 nM each time.

For `Cc1cn(C(=O)N2CC[C@@H](N3C[C@H](C)Oc4c(Cl)c(-c5ccc(F)c6sc(N)c(C#N)c56)c(F)c5nc(OC[C@@]67CCCN6C[C@H](F)C7)nc3c45)[C@H]2C)c(C)n1` [Compound 464, 2-amino-4-((6S)-8-chloro-4-((2R,3R)-1-(2,4-dimethyl-1H-imidazole-1-carbonyl)-2-methylpyrrolidin-3-yl)-10-fluoro-2-(((2R,7aS)-2-fluorotetrahydro-1H-pyrrolizin-7a(5H)-yl)methoxy)-6-methyl-5,6-dihydro-4H-[1,4]oxazepino[5,6,7-de]quinazolin-9-yl)-7-fluorobenzo[b] thiophene-3-carbonitrile], the 50% inhibitory concentration (IC50) on KRAS WT and at KRAS G12S was under 500 nM in each case.

For the molecule `C=CC(=O)N1CC[C@@H](N2CCOc3c(Cl)c(-c4ccc(F)c5sc(N)c(C#N)c45)c(F)c4nc(OC[C@@]56CCCN5C[C@H](F)C6)nc2c34)[C@H]1C` [Compound 470, 4-(4-((2R,3R)-1-acryloyl-2-methylpyrrolidin-3-yl)-8-chloro-10-fluoro-2-(((2R, 7aS)-2-fluorotetrahydro-1H-pyrrolizin-7a(5H)-yl)methoxy)-5,6-dihydro-4H-[1,4]oxazepino[5,6,7-de]quinazolin-9-yl)-2-amino-7-fluorobenzo[b]thiophene-3-carbonitrile], the 50% inhibitory concentration (IC50) on KRAS WT and on KRAS G12S was under 500 nM in each case.

As to `C=CC(=O)N1CC[C@@H](N2CCCOc3c(Cl)c(-c4ccc(F)c5sc(N)c(C#N)c45)c(F)c4nc(OC[C@@]56CCCN5C[C@H](F)C6)nc2c34)[C@H]1C` [Compound 411, 4-(4-((2R,3R)-1-acryloyl-2-methylpyrrolidin-3-yl)-9-chloro-11-fluoro-2-(((2R,7aS)-2-fluorotetrahydro-1H-pyrrolizin-7a (5H)-yl)methoxy)-4,5,6,7-tetrahydro-[1,5]oxazocino-[4,3,2-de]quinazolin-10-yl)-2-amino-7-fluorobenzo[b]thiophene-3-carbonitrile], the IC50 on KRAS WT and on KRAS G12S was under 500 nM each time.

As to `C[C@H](O)[C@H]1COc2c(Cl)c(-c3ccc(F)c4sc(N)c(C#N)c34)c(F)c3nc(OC[C@@]45CCCN4C[C@H](F)C5)nc(c23)N1CC1CCCN1C(=O)n1ccnc1` (stereo partly drawn) [Compound 495, 4-((5R)-4-((1-(1H-imidazole-1-carbonyl)pyrrolidin-2-yl)methyl)-8-chloro-10-fluoro-2-(((2R,7aS)-2-fluorotetrahydro-1H-pyrrolizin-7a(5H)-yl)methoxy)-5-((S)-1-hydroxyethyl)-5,6-dihydro-4H-[1,4]oxazepino [5,6,7-de]quinazolin-9-yl)-2-amino-7-fluorobenzo[b] thiophene-3-carbonitrile], the half-maximal inhibitory concentration (IC50) on KRAS WT and at KRAS G12S was under 500 nM each time.

`N#Cc1c(N)sc2c(F)ccc(-c3c(Cl)c4c5c(nc(OC[C@@]67CCCN6C[C@H](F)C7)nc5c3F)N(CC3(O)CN(C(=O)n5ccnc5)C3)CCO4)c12` [Compound 463, 2-amino-4-(8-chloro-10-fluoro-2-(((2R,7aS)-2-fluorotetrahydro-1H-pyrrolizin-7a(5H)-yl)methoxy)-4-((3-hydroxy-1-(1H-imidazole-1-carbonyl)azetidin-3-yl)methyl)-5,6-dihydro-4H-[1,4]oxazepino [5,6,7-de]quinazolin-9-yl)-7-fluorobenzo[b]thiophene-3-carbonitrile]: the concentration for half-maximal inhibition (IC50) at KRAS WT and on KRAS G12S was under 500 nM throughout.

Turning to `CC(C)[C@@H]1[C@H](CN2CCOc3c(Cl)c(-c4ccc(F)c5sc(N)c(C#N)c45)c(F)c4nc(OC[C@@]56CCCN5C[C@H](F)C6)nc2c34)CN1C(=O)n1cnc(F)n1` (single isomer, unassigned) [Compound 408], the half-inhibitory concentration (IC50) on KRAS WT and on KRAS G12S was under 500 nM throughout.

Consider `C[C@@H]1CCOc2c(Cl)c(-c3ccc(F)c4sc(N)c(C#N)c34)c(F)c3nc(OC[C@@]45CCCN4C[C@H](F)C5)nc(c23)N1C[C@@H]1CN(C(=O)n2ccnc2)[C@@H]1C1(C)CC1` [Compound 455, 4-((5R)-4-(((2S,3R)-1-(1H-imidazole-1-carbonyl)-2-(1-methylcyclopropyl)azetidin-3-yl)methyl)-9-chloro-11-fluoro-2-(((2R,7aS)-2-fluorotetrahydro-1H-pyrrolizin-7a(5H)-yl)methoxy)-5-methyl-4,5,6,7-tetrahydro-[1,5]oxazocino[4,3,2-de]quinazolin-10-yl)-2-amino-7-fluorobenzo [b]thiophene-3-carbonitrile], for which the IC50 at KRAS WT and on KRAS G12S was under 500 nM in each case.

With `C[C@@H]1[C@H](N2CCCc3nc(-c4ccc(F)c5sc(N)c(C#N)c45)c(F)c4nc(OC[C@@]56CCCN5C[C@H](F)C6)nc2c34)CCN1C(=O)n1cnc(Cl)n1` [Compound 433, 2-amino-4-(10-((2R,3R)-1-(3-chloro-1H-1,2,4-triazole-1-carbonyl)-2-methylpyrrolidin-3-yl)-4-fluoro-2-(((2R,7aS)-2-fluorotetrahydro-1H-pyrrolizin-7a(5H)-yl)methoxy)-7,8,9,10-tetrahydro-1,3,6,10-tetraazacyclohepta[de]naphthalen-5-yl)-7-fluorobenzo[b]thiophene-3-carbonitrile], the IC50 at KRAS WT and on KRAS G12S was under 500 nM in each case.

For `CC(C)[C@@H]1[C@H](CN2CCOc3c(Cl)c(-c4ccc(F)c5sc(N)c(C#N)c45)c(F)c4nc(OC[C@@]56CCCN5C[C@H](F)C6)nc2c34)CN1C(=O)n1cnc(Cl)n1` [Compound 493, 2-amino-4-(8-chloro-4-(((2R,3R)-1-(3-chloro-1H-1,2,4-triazole-1-carbonyl)-2-isopropylazetidin-3-yl)methyl)-10-fluoro-2-(((2R,7aS)-2-fluorotetrahydro-1H-pyrrolizin-7a (5H)-yl)methoxy)-5,6-dihydro-4H-[1,4]oxazepino[5,6,7-de]quinazolin-9-yl)-7-fluorobenzo[b]thiophene-3-carbonitrile], the IC50 at KRAS WT and at KRAS G12S was under 500 nM each time.

For the molecule `N#Cc1c(N)sc2c(F)ccc(-c3c(Cl)c4c5c(nc(OC[C@@]67CCCN6C[C@H](F)C7)nc5c3F)N(CC3CN(C(=O)/C=C/C(F)F)C3)CCO4)c12` [Compound 423, 2-amino-4-(8-chloro-4-((1-((E)-4,4-difluorobut-2-enoyl)azetidin-3-yl)methyl)-10-fluoro-2-(((2R,7aS)-2-fluorotetrahydro-1H-pyrrolizin-7a (5H)-yl)methoxy)-5,6-dihydro-4H-[1,4]oxazepino[5,6,7-de]quinazolin-9-yl)-7-fluorobenzo[b]thiophene-3-carbonitrile], the IC50 at KRAS WT and at KRAS G12S was under 500 nM each time.
